ChEMBL document CHEMBL1201862, “PubChem BioAssay data set” (2004)
Active and inactive are the calls of the source. Rule as the data show it, for most assays here: actives have a measured EC50 and inactives only a lower limit.

How the values were obtained:
[1] = NIH-3T3 fibroblast cytotoxicity, dose response, cytotoxicity control, cell-based, fluorescence, Alamar Blue, secondary assay (AID 2327); format: functional;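 also: NIH-3T3 mouse fibroblasts cultured with fluconazole at 8 µg/mL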
[2] = system: Streptococcus sp. 'group A'; assay: growth inhibition of control SK(-) GAS strain, dose response, counter-screen for streptokinase expression inhibitor project, luminescence, kanamycin, BacTiterGlo, confirmation (AID 1900); format: functional, organism-based
Streptokinase A = target: T1, Streptokinase A (Streptococcus pyogenes serotype M1, UniProt P10520); assay: S. pyogenes streptokinase expression inhibitors, potency, dose response, plasminogen activation absorbance, OD405 (AID 1914); format: functional, Streptococcus pyogenes M1 GAS;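 also: secreted streptokinase activity via plasminogen activation per viability signal from cell pellet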
T1 sequence (P10520 whole entry): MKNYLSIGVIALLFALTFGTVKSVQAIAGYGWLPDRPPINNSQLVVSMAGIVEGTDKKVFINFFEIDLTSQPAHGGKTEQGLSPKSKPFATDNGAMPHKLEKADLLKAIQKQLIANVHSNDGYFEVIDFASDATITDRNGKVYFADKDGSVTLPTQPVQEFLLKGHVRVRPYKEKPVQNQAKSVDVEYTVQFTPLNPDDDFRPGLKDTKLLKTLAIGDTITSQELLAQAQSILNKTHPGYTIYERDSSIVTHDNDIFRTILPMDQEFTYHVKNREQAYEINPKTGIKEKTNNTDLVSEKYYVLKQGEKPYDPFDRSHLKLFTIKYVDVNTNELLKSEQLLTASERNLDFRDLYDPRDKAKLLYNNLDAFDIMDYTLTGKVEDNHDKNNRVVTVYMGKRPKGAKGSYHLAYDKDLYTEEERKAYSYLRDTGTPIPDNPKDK

[3] = C. albicans growth with fluconazole, confirmation, fluorescence, retest (AID 2467); format: functional, cell-based
Streptococcus = assay: Group A Streptococcus viability loss, dose response, counter-screen for streptokinase expression inhibitor project, luminescence, BacTiterGlo (AID 1915); format: functional, organism-based;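 also: potency for reduction of bacterial viability or growth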
[4] = target: T2, Corticotropin-releasing factor receptor 2/Corticotropin-releasing factor-binding protein (Homo sapiens, UniProt P24387+Q13324); assay: Dose Response confirmation of uHTS hits for small molecule antagonists of the CRF-binding protein and CRF-R2 receptor complex.; format: functional; settings: read-out: IC50_Mean
T2 sequence (Q13324 whole entry): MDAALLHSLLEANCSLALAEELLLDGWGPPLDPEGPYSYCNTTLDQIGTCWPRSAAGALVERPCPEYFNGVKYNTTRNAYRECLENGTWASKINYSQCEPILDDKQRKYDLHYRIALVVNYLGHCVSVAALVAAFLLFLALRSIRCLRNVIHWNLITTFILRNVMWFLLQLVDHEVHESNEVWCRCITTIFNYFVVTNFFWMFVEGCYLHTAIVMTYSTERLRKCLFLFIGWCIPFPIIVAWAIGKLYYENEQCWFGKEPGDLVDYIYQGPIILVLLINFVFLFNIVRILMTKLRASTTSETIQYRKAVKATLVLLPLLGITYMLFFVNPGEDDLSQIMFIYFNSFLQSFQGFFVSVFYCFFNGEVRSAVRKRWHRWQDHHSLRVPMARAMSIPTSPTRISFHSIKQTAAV
T2 sequence (P24387 whole entry): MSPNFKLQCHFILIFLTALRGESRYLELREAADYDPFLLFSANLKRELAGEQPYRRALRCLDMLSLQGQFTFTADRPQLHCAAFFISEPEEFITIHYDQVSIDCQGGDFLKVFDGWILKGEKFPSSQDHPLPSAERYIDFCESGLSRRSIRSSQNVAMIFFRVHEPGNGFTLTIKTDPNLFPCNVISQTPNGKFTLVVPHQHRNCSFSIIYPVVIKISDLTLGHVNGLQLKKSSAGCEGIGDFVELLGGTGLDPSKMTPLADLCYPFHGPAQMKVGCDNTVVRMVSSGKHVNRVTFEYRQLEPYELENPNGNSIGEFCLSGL

[5] = target: T2, Corticotropin-releasing factor receptor 2/Corticotropin-releasing factor-binding protein; assay: activators of CRF receptor 2 with binding protein – uHTS hits, confirmation (AID 602473); format: functional; settings: read-out: EC50_Mean
[6] = target: T3, Heat shock factor protein 1 (Mus musculus, UniProt P38532); assay: HSF1 potentiators in luciferase reporter cells, confirmation, cell-based, NIH3T3, luminescence, dose retest (AID 435004); format: functional;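 also: stress induced by proteasome inhibitor MG132 added 30 min after compound; luciferase reporter driven by HSF1 response element in NIH3T3 cells; actives raise luminescence as potentiators of the MG132 stress response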
T3 sequence (P38532 whole entry): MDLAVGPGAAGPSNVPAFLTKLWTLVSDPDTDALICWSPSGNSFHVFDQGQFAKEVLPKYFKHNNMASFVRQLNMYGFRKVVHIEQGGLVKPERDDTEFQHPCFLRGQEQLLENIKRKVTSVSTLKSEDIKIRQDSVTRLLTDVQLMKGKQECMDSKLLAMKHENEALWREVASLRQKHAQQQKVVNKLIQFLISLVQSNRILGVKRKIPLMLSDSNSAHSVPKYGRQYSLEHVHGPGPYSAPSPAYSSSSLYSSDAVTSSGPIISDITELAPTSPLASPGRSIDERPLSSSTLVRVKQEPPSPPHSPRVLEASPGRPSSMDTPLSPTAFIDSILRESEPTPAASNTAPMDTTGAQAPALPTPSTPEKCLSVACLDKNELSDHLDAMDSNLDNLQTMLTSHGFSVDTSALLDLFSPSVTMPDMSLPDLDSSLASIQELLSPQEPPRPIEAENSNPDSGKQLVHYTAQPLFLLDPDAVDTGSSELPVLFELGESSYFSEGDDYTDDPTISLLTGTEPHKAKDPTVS

INS1 = assay: beta cell apoptosis inhibitors, cytokine rescue, dose response, luminescence, retest (AID 449756); format: functional, cell-based; settings: Rattus norvegicus;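 also: cell death triggered by IL-1 beta plus TNF-alpha plus IFN-gamma mixture; protective hits raise ATP signal compared with cytokine alone wells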
[7] = Luminescence Cell-Based Dose Confirmation HTS to Identify Activators of 5'UTR Stem-Loop Driven Alpha-Synuclein mRNA Translation in H4 Neuroglioblastoma Cells. [Related pubchem assays: 1829 (Project Summary), 1814 (Primary HTS)]; format: functional
[8] = Luminescence Cell-Based Dose Response HTS to Identify Activators of Luciferase Translation or Activity in H4 […] Cells. [Related pubchem assays: 1829 (Project Summary), 1814 (Primary HTS)]; format: functional
H4 = assay: Luminescence Cell-Based Dose Response HTS to Identify Activators of 5'UTR Stem-Loop Driven Prion Protein mRNA Translation in H4 Neuroglioblastoma Cells. [Related pubchem assays: 1829 (Project Summary), 1814 (Primary HTS)]; format: functional; settings: Homo sapiens
[9] = inhibitors of intracellular T. cruzi replication, confirmation, NIH3T3 host cells, beta-gal luminescence (AID 2044); format: functional, cell-based;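 also: intracellular parasites grown in NIH/3T3 mouse fibroblasts as host cells; luminescent beta-galactosidase reporter signal from transgenic T. cruzi replicating inside host cells; inhibitors lower the luminescence signal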
[10] = cytotoxicity toward NIH3T3 fibroblasts, dose response, counter-screen, cell-based, ATP luminescence, mouse fibroblasts (AID 2010); format: functional;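 also: cells exposed to compound for about 90 hours before reading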
[11] = inhibitors of firefly luciferase expression or activity, dose response, H4 neuroglioma cells, luminescence (AID 1990); format: functional, cell-based
[12] = Luminescence Cell-Based Dose Response HTS to Identify Inhibitors of 5'UTR Stem-Loop Driven Prion Protein mRNA Translation in H4 Neuroglioblastoma Cells. [Related pubchem assays: 1827 (Project Summary), 1813 (Primary HTS)]; format: functional
[13] = inhibitors of SNCA 5'UTR-driven reporter translation, confirmation, H4 neuroglioma cells, luminescence (AID 1988); format: functional, cell-based
Paired box protein Pax-8 = Paired box protein Pax-8 (Homo sapiens, UniProt Q06710); assay: inhibitors of PAX8-driven TPO luciferase reporter, dose response, RMG-I cells, cherry-pick (AID 687027); format: functional, cell-based;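 also: luciferase reporter driven by Pax8 target thyroperoxidase promoter measured by SteadyGlo luminescence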
Chain of Paired box protein Pax-8 (Q06710 whole entry): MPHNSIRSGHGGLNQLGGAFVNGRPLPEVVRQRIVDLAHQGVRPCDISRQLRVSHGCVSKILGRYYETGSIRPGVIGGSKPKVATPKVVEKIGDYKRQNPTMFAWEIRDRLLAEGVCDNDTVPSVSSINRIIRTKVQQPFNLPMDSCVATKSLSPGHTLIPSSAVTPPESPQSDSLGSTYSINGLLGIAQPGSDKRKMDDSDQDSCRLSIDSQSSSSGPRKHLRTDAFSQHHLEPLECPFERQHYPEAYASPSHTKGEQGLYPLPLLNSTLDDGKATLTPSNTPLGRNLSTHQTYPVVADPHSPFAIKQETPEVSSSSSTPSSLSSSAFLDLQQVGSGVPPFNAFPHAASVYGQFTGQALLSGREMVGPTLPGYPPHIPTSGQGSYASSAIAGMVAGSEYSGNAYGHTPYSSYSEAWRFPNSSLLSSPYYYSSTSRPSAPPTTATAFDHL

| SMILES | EC50 [6] | EC50 [7] | EC50 [8] | EC50 (H4) | further results |
| --- | --- | --- | --- | --- | --- |
| O=C(O)c1cnc(-c2ccccc2)nc1Sc1ccc(Cl)cc1Cl | – | – | – | – | EC50 [1]: 57.8 µM (active); EC50 [2]: 15.4 µM (active); EC50 (Streptokinase A): 18.8 µM (active); EC50 [3]: 0.13 µM (active); EC50 (Streptococcus): > 150 µM (not active); IC50 [4]: 1.85 µM (active); EC50 [5]: > 53 µM (inactive) |
| Cc1cccc(C2c3[nH]c4ccccc4c3CCN2Cc2cnn(-c3ccc(F)cc3)c2)n1 (configuration not stated) | > 260 µM (inactive) | – | – | – | – |
| CC(C)(C)CN1CCC(Oc2cccc(C(=O)NCCCOc3cccnc3)c2)CC1 | – | – | – | – | AC50 (INS1): 1.25 µM (active) |
| CSc1nsc(SCC(=O)Nc2ccc(C(C)=O)cc2)n1 | – | 4.49 µM (active) | 23.5 µM (active) | 6.18 µM (active) | – |
| CC[n+]1c(/C=C/N(C)c2ccccc2)oc2ccccc21 | – | – | – | – | EC50 [1]: > 150 µM (inactive); EC50 [3]: 3.58 µM (active); EC50 [9]: 0.258 µM (active); EC50 [10]: 16.9 µM (active) |
| CCN1CCN(C(CNC(=O)c2ccc3c(c2)OCO3)c2cccnc2)CC1 (configuration not stated) | – | > 120 µM (not active) | 11.5 µM (active) | 15.6 µM (active) | – |
| CCN(CC)S(=O)(=O)c1ccc(OC)c(NC(=O)c2cc3c(=O)n4ccccc4nc3s2)c1 | > 260 µM (inactive) | – | – | – | – |
| COc1c2c(cc3oc(=O)c4c5ccc(O)cc5oc4c13)OC(C)(C)CC2 [ISOGLYCYROL] | – | 0.274 µM (active) | 3.13 µM (active) | – | – |
| CC(Nc1cc(N2CCNCC2)ccc1[N+](=O)[O-])c1ccccc1 (configuration not stated) | > 260 µM (inactive) | – | – | – | EC50 [11]: > 120 µM (not active); EC50 [12]: > 120 µM (not active); EC50 [13]: 33.7 µM (active) |
| Nc1ccccc1-[n+]1c(-c2ccccc2)cc(-c2ccccc2)cc1-c1ccccc1.[O-][Cl+3]([O-])([O-])[O-] | – | – | – | – | EC50 [1]: > 150 µM (inactive); EC50 [3]: 0.843 µM (active); EC50 [9]: 0.114 µM (active); EC50 [10]: > 60 µM (not active) |
| CCO[C@@H]1OC(C(=O)NCc2nc3ccccc3[nH]2)=C[C@H](C2CC2)[C@H]1CCCO | – | > 120 µM (not active) | > 120 µM (not active) | > 120 µM (not active) | – |
| CC(C)(C)C1CCC(OC(=O)CN2CCOCC2)CC1 (configuration not stated) | – | 13.5 µM (active) | 8.04 µM (active) | 19.6 µM (active) | – |
| CN(C)c1ccc(N=Nc2ccccc2C(=O)OCC(=O)N(C)C2CCCCC2)cc1 | – | 85.5 µM (active) | 84.2 µM (active) | 51.8 µM (active) | – |
| CCOC(=O)C1CCN(C(=O)CN2C(=O)COc3ccc(C(C)(C)C)cc32)CC1 | – | > 120 µM (not active) | > 120 µM (not active) | > 120 µM (not active) | – |
| Cc1ccc2nc(-c3ccc4c(c3)OCCO4)cc(C(=O)O)c2c1 | > 260 µM (inactive) | – | – | – | – |
| O=C(NC1CCCCC1)C1CCCN1S(=O)(=O)c1cccc2nsnc12 (configuration not stated) | > 260 µM (inactive) | – | – | – | – |
| Cn1nnnc1SCC(=O)Nc1nc2ccccc2s1 | – | 8.16 µM (active) | 8.98 µM (active) | 33.4 µM (active) | – |
| COC(=O)c1cn(CCOc2ccccc2)c2ccccc12 | – | 6.67 µM (active) | 10.2 µM (active) | 12.9 µM (active) | – |
| CN1C(=O)C2C=CC1C1C(=O)N(c3ccccc3)C(=O)C21 (configuration not stated) | – | 0.128 µM (active) | 0.45 µM (active) | 0.209 µM (active) | – |
| Cc1c(C(=O)N(Cc2ccncc2)CC2CCCO2)oc2c(F)cccc12 (configuration not stated) | > 260 µM (inactive) | – | – | – | – |
| Cc1cc(O)c2c(c1)C(=O)C13C(=C2O)C(=O)[C@H]2[C@@H](O)[C@@H]1[C@H]1[C@H](O)[C@@H]3C(=O)C3=C(O)c4c(O)cc(C)cc4C(=O)C312 (some centres not stated) | – | – | – | – | AC50 (INS1): 7.65 µM (active) |
| Cc1ccc(O)c(C(=O)c2cnc3c(c2)CN(CCC(C)C)C(=O)N3)c1 | > 260 µM (inactive) | – | – | – | – |
| O=C(NC1CCCCC1)C(c1cccs1)N(C(=O)Cc1c[nH]c2ccccc12)c1ccc(F)cc1 (configuration not stated) | – | – | – | – | EC50 [9]: 0.871 µM (active); EC50 [10]: 9.47 µM (active); AC50 (Paired box protein Pax-8): 11.7 µM (active) |
| CN(C)CCCN(C(=O)CCOc1ccccc1)c1nc2c(F)cccc2s1 | – | – | – | – | EC50 [9]: 0.152 µM (active); EC50 [10]: 7.17 µM (active); AC50 (Paired box protein Pax-8): 7.17 µM (active) |
| COc1ccc(N2C(S)=NC3N2C(S)=NC3(C)c2ccccc2)cc1 (configuration not stated) | – | 18.1 µM (active) | 35 µM (active) | 53.5 µM (active) | – |
| CCCCc1ccc(-c2ccc(Br)cc2)nc1 | > 260 µM (inactive) | – | – | – | – |
| CN(Cc1ccccc1)C(=O)CCC1CCN(C(=O)CC2=CCCCC2)CC1 | > 260 µM (inactive) | – | – | – | – |
